In PubChem BioAssay AID623879 (Vanderbilt Specialized Chemistry Center, 2012):
Calls of active or inactive are those of the source.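 Rule for the calls: active = fold shift at least 2 as potentiator or at most 0.5 as antagonist, actives on both sides; inactive = fold shift between 0.5 and 2.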

Target: Metabotropic glutamate receptor 3 (Rattus norvegicus) (UniProt P31422)
Assay: rat mGlu3 allosteric modulation, SAR follow-up, selectivity assay for mGlu4 PAM optimization project, cell-based, GIRK thallium flux (AID 623879)
Settings: rat mGlu3 cells, glutamate CRC shift, at 10 µM

Chain of Metabotropic glutamate receptor 3 (Rattus norvegicus) (P31422 whole entry, looked up): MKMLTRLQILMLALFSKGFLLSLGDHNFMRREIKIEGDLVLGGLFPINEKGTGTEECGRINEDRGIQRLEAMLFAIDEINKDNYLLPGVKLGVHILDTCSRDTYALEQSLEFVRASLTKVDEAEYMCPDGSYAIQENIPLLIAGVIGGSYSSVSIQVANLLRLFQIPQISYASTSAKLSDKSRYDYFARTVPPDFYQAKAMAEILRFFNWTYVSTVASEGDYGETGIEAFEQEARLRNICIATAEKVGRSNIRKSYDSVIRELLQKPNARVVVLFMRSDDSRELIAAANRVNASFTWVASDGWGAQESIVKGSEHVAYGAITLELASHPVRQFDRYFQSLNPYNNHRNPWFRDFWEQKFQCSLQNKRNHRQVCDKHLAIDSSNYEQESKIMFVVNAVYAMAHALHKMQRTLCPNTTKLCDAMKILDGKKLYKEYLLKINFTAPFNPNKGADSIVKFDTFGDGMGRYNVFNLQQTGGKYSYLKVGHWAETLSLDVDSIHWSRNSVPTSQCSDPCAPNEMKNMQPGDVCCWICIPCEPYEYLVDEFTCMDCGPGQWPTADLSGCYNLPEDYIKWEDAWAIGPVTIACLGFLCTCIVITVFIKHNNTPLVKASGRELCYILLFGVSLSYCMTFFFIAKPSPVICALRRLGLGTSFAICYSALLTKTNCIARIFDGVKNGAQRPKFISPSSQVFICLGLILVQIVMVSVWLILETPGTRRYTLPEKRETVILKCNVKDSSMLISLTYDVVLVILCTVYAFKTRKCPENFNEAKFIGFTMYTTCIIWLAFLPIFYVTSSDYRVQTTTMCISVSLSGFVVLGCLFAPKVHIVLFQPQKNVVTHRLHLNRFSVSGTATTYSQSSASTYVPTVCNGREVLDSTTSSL

fold shift: 0.897 (inactive)
max response (measured here: glutamate max response with compound, stronger effect = higher value): 98.7%
Compound: O=C(Nc1cccc(Cl)c1)c1ccccn1
